Target: T1, Full-length USP19 (Homo sapiens, UniProt O94966)
T1 construct: Full-length USP19 was purchased from Boston Biochem (E-576); purchased Boston Biochem E-576
T1 sequence (O94966 1-1318): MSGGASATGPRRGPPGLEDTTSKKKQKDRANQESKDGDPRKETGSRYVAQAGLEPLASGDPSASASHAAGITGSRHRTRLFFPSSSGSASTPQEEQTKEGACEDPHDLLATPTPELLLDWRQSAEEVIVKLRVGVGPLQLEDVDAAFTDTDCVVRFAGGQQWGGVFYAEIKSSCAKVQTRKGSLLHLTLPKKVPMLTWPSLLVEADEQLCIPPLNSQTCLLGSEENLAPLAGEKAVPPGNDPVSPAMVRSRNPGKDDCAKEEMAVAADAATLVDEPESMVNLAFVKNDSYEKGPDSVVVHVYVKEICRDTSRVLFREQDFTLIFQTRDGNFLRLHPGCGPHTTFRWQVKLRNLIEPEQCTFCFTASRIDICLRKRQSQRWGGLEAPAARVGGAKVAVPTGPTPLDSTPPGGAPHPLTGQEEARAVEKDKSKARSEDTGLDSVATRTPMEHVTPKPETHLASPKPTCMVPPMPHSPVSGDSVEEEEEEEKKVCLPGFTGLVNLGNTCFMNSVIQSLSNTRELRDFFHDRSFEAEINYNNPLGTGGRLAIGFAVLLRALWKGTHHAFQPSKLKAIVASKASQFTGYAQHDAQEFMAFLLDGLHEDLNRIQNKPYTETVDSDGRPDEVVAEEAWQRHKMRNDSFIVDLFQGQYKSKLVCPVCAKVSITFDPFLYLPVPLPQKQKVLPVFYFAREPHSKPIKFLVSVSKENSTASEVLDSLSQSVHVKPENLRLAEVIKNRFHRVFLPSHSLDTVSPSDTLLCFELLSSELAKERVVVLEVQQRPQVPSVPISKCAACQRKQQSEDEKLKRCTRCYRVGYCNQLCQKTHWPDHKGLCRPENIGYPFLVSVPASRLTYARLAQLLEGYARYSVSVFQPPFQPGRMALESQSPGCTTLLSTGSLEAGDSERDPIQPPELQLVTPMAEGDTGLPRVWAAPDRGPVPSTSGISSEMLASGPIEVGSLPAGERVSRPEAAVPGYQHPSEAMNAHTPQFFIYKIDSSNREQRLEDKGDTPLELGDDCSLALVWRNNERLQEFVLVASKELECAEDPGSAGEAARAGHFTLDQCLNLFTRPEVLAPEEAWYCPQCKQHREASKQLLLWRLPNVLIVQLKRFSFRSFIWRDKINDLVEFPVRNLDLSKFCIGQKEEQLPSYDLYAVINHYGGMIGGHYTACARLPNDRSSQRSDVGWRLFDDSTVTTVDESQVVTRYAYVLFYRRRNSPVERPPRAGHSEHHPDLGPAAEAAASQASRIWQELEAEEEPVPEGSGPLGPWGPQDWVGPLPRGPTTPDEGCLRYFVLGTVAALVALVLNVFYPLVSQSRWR
Experiment: USP19 fluorescence polarisation (FP) homogeneous assay with Ubiquitin-Lys-TAMRA substrate
Type: biochemical
Conditions: 2.5 nM USP19, 30 min pre-incubation, average of at least two duplicate experiments
How it was run: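 Full-length USP19 preincubated 30 min at RT with inhibitor (200 μM to 2 μM series, 8–18 points) before adding 500 nM Ubiquitin-Lys-TAMRA substrate.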

IC50, 0.5 to 5 µM:
C[C@H](CC1CCCCC1)C(=O)N1CCC(O)(Cn2ccc3ccc(F)cc3c2=O)C2(CCCC2)C1 (stereo partly drawn) [Example 121, 2-((7-((R)-3-Cyclohexyl-2-methylpropanoyl)-10-hydroxy-7-azaspiro[4.5]decan-10-yl)methyl)-7-fluoroisoquinolin-1(2H)-one]
Cc1cccc2c(=O)n(CC3(O)CCN(C(=O)[C@H](C)CC4CCCCC4)CC34CCCC4)cnc12 (stereo partly drawn) [Example 125, 3-((7-((R)-3-Cyclohexyl-2-methylpropanoyl)-10-hydroxy-7-azaspiro[4.5]decan-10-yl)methyl)-8-methylquinazolin-4(3H)-one]
COc1ccc2ccn(CC3(O)CCN(C(=O)[C@H](C)CC4CCCCC4)CC34CCCC4)c(=O)c2c1 (stereo partly drawn) [Example 127, 2-((7-((R)-3-Cyclohexyl-2-methylpropanoyl)-10-hydroxy-7-azaspiro[4.5]decan-10-yl)methyl)-7-methoxyisoquinolin-1(2H)-one]
C[C@H](CC1CCCCC1)C(=O)N1CCC(O)(Cn2cnc3ccccc3c2=O)C2(CCCC2)C1 (stereo partly drawn) [Example 128, 3-((7-((R)-3-Cyclohexyl-2-methylpropanoyl)-10-hydroxy-7-azaspiro[4.5]decan-10-yl)methyl)quinazolin-4(3H)-one]
C[C@H](CC1CCCCC1)C(=O)N1CCC(O)(Cn2cnc3cc(Cl)ccc3c2=O)C2(CCCC2)C1 (stereo partly drawn) [Example 129, 7-Chloro-3-((7-((R)-3-cyclohexyl-2-methylpropanoyl)-10-hydroxy-7-azaspiro[4.5]decan-10-yl)methyl)quinazolin-4(3H)-one]
C[C@H](CC1CCCCC1)C(=O)N1CCC(O)(Cn2cnc3c(F)cccc3c2=O)C2(CCCC2)C1 (stereo partly drawn) [Example 131, 3-((7-((R)-3-Cyclohexyl-2-methylpropanoyl)-10-hydroxy-7-azaspiro[4.5]decan-10-yl)methyl)-8-fluoroquinazolin-4(3H)-one]
C[C@H](CC1CCCCC1)C(=O)N1CCC(O)(Cn2cnc3sccc3c2=O)C2(CCCC2)C1 (stereo partly drawn) [Example 132, 3-((7-((R)-3-Cyclohexyl-2-methylpropanoyl)-10-hydroxy-7-azaspiro[4.5]decan-10-yl)methyl)thieno[2,3-d]pyrimidin-4(3H)-one]
COc1ccc2c(=O)n(CC3(O)CCN(C(=O)[C@H](C)CC4CCCCC4)CC34CCCC4)cnc2c1 (stereo partly drawn) [Example 139, 3-((7-((R)-3-Cyclohexyl-2-methylpropanoyl)-10-hydroxy-7-azaspiro[4.5]decan-10-yl)methyl)-7-methoxyquinazolin-4(3H)-one]

IC50, < 0.5 µM:
CCn1ncc2c(=O)n(CC3(O)CCN(C(=O)[C@H](C)CC4CCCCC4)CC34CCCC4)cnc21 (stereo partly drawn) [Example 124, 5-((7-((R)-3-Cyclohexyl-2-methylpropanoyl)-10-hydroxy-7-azaspiro[4.5]decan-10-yl)methyl)-1-ethyl-1,5-dihydro-4H-pyrazolo[3,4-d]pyrimidin-4-one]
C[C@H](CC1CCCCC1)C(=O)N1CCC(O)(Cn2ccc3ccncc3c2=O)C2(CCCC2)C1 (stereo partly drawn) [Example 137, 2-((7-((R)-3-Cyclohexyl-2-methylpropanoyl)-10-hydroxy-7-azaspiro[4.5]decan-10-yl)methyl)-2,7-naphthyridin-1(2H)-one]

IC50, 5 to 50 µM:
C[C@H](CC(F)(F)F)C(=O)N1CCC(O)(Cn2ccc3cc(C(F)(F)F)ccc3c2=O)C2(CCCC2)C1 (stereo partly drawn) [Example 126, 2-((10-Hydroxy-7-((R)-4,4,4-trifluoro-2-methylbutanoyl)-7-azaspiro[4.5]decan-10-yl)methyl)-6-(trifluoromethyl)isoquinolin-1(2H)-one]
COc1ccc2c(=O)n(CC3(O)CCN(C(=O)[C@H](C)CC(F)(F)F)CC34CCCC4)cnc2c1 (stereo partly drawn) [Example 133, 3-((10-Hydroxy-7-((R)-4,4,4-trifluoro-2-methylbutanoyl)-7-azaspiro[4.5]decan-10-yl)methyl)-7-methoxyquinazolin-4(3H)-one]
C[C@H](CC(F)(F)F)C(=O)N1CCC(O)(Cn2cnc3cc(Cl)ccc3c2=O)C2(CCCC2)C1 (stereo partly drawn) [Example 134, 7-Chloro-3-((10-hydroxy-7-((R)-4,4,4-trifluoro-2-methylbutanoyl)-7-azaspiro[4.5]decan-10-yl)methyl)quinazolin-4(3H)-one]
C[C@H](CC(F)(F)F)C(=O)N1CCC(O)(Cn2ccc3ccc(F)cc3c2=O)C2(CCCC2)C1 (stereo partly drawn) [Example 135, 7-Fluoro-2-((10-hydroxy-7-((R)-4,4,4-trifluroo-2-methylbutanoyl)-7-azaspiro[4.5]decan-10-yl)methyl)isoquinolin-1(2H)-one]
C[C@H](CC(F)(F)F)C(=O)N1CCC(O)(Cn2ccc3ccncc3c2=O)C2(CCCC2)C1 (stereo partly drawn) [Example 136, 2-((10-Hydroxy-7-((R)-4,4,4-trifluoro-2-methylbutanoyl)-7-azaspiro[4.5]decan-10-yl)methyl)-2,7-naphthyridin-1(2H)-one]
C[C@H](CC1CCCCC1)C(=O)N1CCC(O)(Cn2ccc3occc3c2=O)C2(CCCC2)C1 (stereo partly drawn) [Example 138, 5-((7-((R)-3-Cyclohexyl-2-methylpropanoyl)-10-hydroxy-7-azaspiro[4.5]decan-10-yl)methyl)furo[3,2-c]pyridin-4(5H)-one]
CCn1ncc2c(=O)n(CC3(O)CCN(C(=O)[C@H](C)CC(F)(F)F)CC34CCCC4)cnc21 (stereo partly drawn) [Example 141, 1-Ethyl-5-((10-hydroxy-7-((R)-4,4,4-trifluroo-2-methylbutanoyl)-7-azaspiro[4.5]decan-10-yl)methyl)-1,5-dihydro-4H-pyrazolo[3,4-d]pyrimidin-4-one]
C[C@H](CC1CCCCC1)C(=O)N1CCC(O)(Cn2ccc3sccc3c2=O)C2(CCCC2)C1 (stereo partly drawn) [Example 142, 5-((7-((R)-3-Cyclohexyl-2-methylpropanoyl)-10-hydroxy-7-azaspiro[4.5]decan-10-yl)methyl)thieno[3,2-c]pyridin-4(5H)-one]

IC50, 50 to 250 µM:
COc1ccc2ccn(CC3(O)CCN(C(=O)[C@H](C)CC(F)(F)F)CC34CCCC4)c(=O)c2c1 (stereo partly drawn) [Example 122, 2-((10-Hydroxy-7-((R)-4,4,4-trifluoro-2-methylbutanoyl)-7-azaspiro[4.5]decan-10-yl)methyl)-7-methoxyisoquinolin-1(2H)-one]
C[C@H](CC(F)(F)F)C(=O)N1CCC(O)(Cn2cnc3sccc3c2=O)C2(CCCC2)C1 (stereo partly drawn) [Example 123, 3-((10-Hydroxy-7-((R)-4,4,4-trifluoro-2-methylbutanoyl)-7-azaspiro[4.5]decan-10-yl)methyl)thieno[2,3-d]pyrimidin-4(3H)-one]
C[C@H](CC(F)(F)F)C(=O)N1CCC(O)(Cn2cc(C(=O)N(C)C)c3ccccc3c2=O)C2(CCCC2)C1 (stereo partly drawn) [Example 130, 2-((10-Hydroxy-7-((R)-4,4,4-trifluoro-2-methylbutanoyl)-7-azaspiro[4.5]decan-10-yl)methyl)-N,N-dimethyl-1-oxo-1,2-dihydroisoquinoline-4-carboxamide]
COc1cc2ccn(CC3(O)CCN(C(=O)[C@H](C)CC(F)(F)F)CC34CCCC4)c(=O)c2cc1OC (stereo partly drawn) [Example 140, 2-((10-Hydroxy-7-((R)-4,4,4-trifluoro-2-methylbutanoyl)-7-azaspiro[4.5]decan-10-yl)methyl)-6,7-dimethoxyisoquinolin-1(2H)-one]
